Measured values from patent publication US20240124444A1 (Celgene Corporation, priority 2020, published 2024).
Like-named read-outs stand apart in the source and are kept apart here.

Tested on: C. parvum strain UGA1
Experiment: C. parvum growth inhibition assay (Nluc luminescence in HCT-8 cells)
Format: cell-based, Cryptosporidium parvum
Conditions: Cryptosporidium parvum; for EC50: HCT-8, 48 h, C. parvum growth inhibition in HCT-8 cells, 48 hours, 6 concentrations 10-0.04 μM; for inhibition at 1 µM / inhibition at 10 µM: HCT-8; for inhibition at 1 µM: read-out: % inh @ 1 uM C. parvum; for inhibition at 10 µM: read-out: % inh @ 10 uM C. parvum
Procedure: C. parvum GROWTH INHIBITION ASSAYS
C. parvum growth inhibition was performed as described in Hulverson M A, Vinayak S, Choi R, Schaefer D A, Castellanos-Gonzalez A, Vidadala R S R, Brooks C F, Herbert G T, Betzer D P, Whitman G R, Sparks H N, Arnold S L M, Rivas K L, Barrett L K, White A C Jr, Maly D J, Riggs M W, Striepen B, Van Voorhis W C, Ojo K K. Bumped-Kinase Inhibitors for Cryptosporidiosis Therapy. J Infect Dis. 2017 Apr. 15; 215(8):1275-1284.
C. parvum strain UGA1 […] (ATCC, Manassas, VA) were prepared as described below. HCT-8 cells were inoculated onto 96-well plates were grown for 48 hours to 90%-100% confluence. C. parvum oocysts were then incubated for 10 minutes in 10% bleach at room temperature and washed with Dulbecco's phosphate-buffered saline. One thousand oocysts per well were applied to plates with Roswell Park Memorial Institute 1640 (RPMI) medium supplemented with 10% horse serum and 1% penicillin/streptomycin. Compounds of Formula (I), Formula (II), and Formula (III) were added to the plates at different concentrations and the plates were incubated for 48 hours. Following the incubation, the monolayers were lysed for 1 hour before a luciferase reagent was added, and relative luminescence units were determined.
For certain compounds of Formula I, Formula II, and Formula III, EC50 values were calculated using curves calculated from Prism after analysis of C. parvum growth inhibition at 6 different concentrations: 10, 3.33, 1.11, 0.37, 0.12, and 0.04 μM. […] For certain compounds of Formula I, Formula II, and Formula III, single point inhibition values of 0-33% (activity level D), between 33% and 66% (activity level E), and between 67% and 100% (activity level F) are also shown in Table 1 below.

[1] = single point inhibition @ 10 uM
[2] = single point inhibition at 1 uM
[3] = single point inhibition at 10 uM

Structure (SMILES)	EC50 [µM]	inhibition at 1 µM (single point inhibition @ 1 uM) [%]	inhibition at 10 µM [1] [%]	inhibition at 1 µM [2] [%]	inhibition at 10 µM [3] [%]
N#Cc1cc(-c2cc3cnc(Nc4cccc(C5CCOCC5)c4)cc3[nH]2)ccn1 [Example 54, 4-(6-(3-(tetrahydro-2H-pyran-4-yl)phenylamino)-1H-pyrrolo[3,2-c]pyridin-2-yl)picolinonitrile]	> 1	0 to 33	67 to 100		
FC(F)(F)CNc1cc(-c2cc3cnc(NC4CCOCC4)cc3[nH]2)ccn1 [Example 363, N-(tetrahydro-2H-pyran-4-yl)-2-(2-(2,2,2-trifluoroethylamino)pyridin-4-yl)-1H-pyrrolo[3,2-c]pyridin-6-amine]	< 0.5				
Cn1cc(C(=O)Nc2cc3[nH]c(C(F)(F)F)cc3cn2)cn1 [Example 341, 1-methyl-N-(2-(tirfluoromethyl)-1H-pyrrolo[3,2-c]pyridin-6-yl)-1H-pyrazole-4-carboxamide]				0 to 33	0 to 33
O=C(Nc1cc2[nH]c(C3CCOCC3)cc2cn1)C1CC1 [Example 94, N-(2-(tetrahydro-2H-pyran-4-yl)-1H-pyrrolo[3,2-c]pyridin-6-yl)cyclopropanecarboxamide]	> 1	0 to 33	0 to 33		
O=C(CC1CCOCC1)Nc1cc2[nH]c(-c3ccncc3)cc2cn1 [Example 143, N-(2-(pyridin-4-yl)-1H-pyrrolo[3,2-c]pyridin-6-yl)-2-(tetrahydro-2H-pyran-4-yl)acetamide]		0 to 33	67 to 100		
CNC(=O)Nc1cc2[nH]c(-c3ccnc(C)c3)cc2cn1 [Example 214, 1-methyl-3-(2-(2-methylpyridin-4-yl)-1H-pyrrolo[3,2-c]pyridin-6-yl)urea]				0 to 33	67 to 100
Cn1c(-c2cccnc2)cc2cnc(Nc3cnn(C4CCOCC4)c3)cc21 [Example 266, 1-methyl-2-(pyridin-3-yl)-N-(1-(tetrahydro-2H-pyran-4-yl)-1H-pyrazol-4-yl)-1H-pyrrolo[3,2-c]pyridin-6-amine]				0 to 33	0 to 33
Cc1cc(-c2cc3cnc(NS(=O)(=O)C4CC4)cc3[nH]2)ccn1 [Example 97, N-(2-(2-methylpyridin-4-yl)-1H-pyrrolo[3,2-c]pyridin-6-yl)cyclopropanesulfonamide]	> 1				
COc1nccc(-c2cc3cnc(NC(=O)c4cnn(C(C)C)c4)cc3[nH]2)n1 [Example 177, 1-isopropyl-N-(2-(2-methoxypyrimidin-4-yl)-1H-pyrrolo[3,2-c]pyridin-6-yl)-1H-pyrazole-4-carboxmaide]		0 to 33	67 to 100		
FC(F)(F)CCc1nccc(-c2cc3cnc(NC4CCOCC4)cc3[nH]2)n1 [Example 385, N-(tetrahydro-2H-pyran-4-yl)-2-(2-(3,3,3-trifluoropropyl)pyrimidin-4-yl)-1H-pyrrolo[3,2-c]pyridin-6-amine]	> 1				
CC(C)n1cc(C(=O)Nc2cc3[nH]c(-c4ccnc(OCC(F)(F)F)n4)cc3cn2)cn1 [Example 186, 1-isopropyl-N-(2-(2-(2,2,2-trifluoroethoxy)pyrimidin-4-yl)-1H-pyrrolo[3,2-c]pyridin-6-yl)-1H-pyrazole-4-carboxamide]		0 to 33	67 to 100		
CO[C@H]1C[C@@H](C(=O)Nc2cc3[nH]c(-c4ccnc(C)c4)cc3cn2)C1 [Example 191, (1s,3s)-3-methoxy-N-(2-(2-methylpyridin-4-yl)-1H-pyrrolo[3,2-c]pyridin-6-yl)cyclobutanecarboxamide]		0 to 33	67 to 100		
CNC(=O)c1ccc(Nc2cc3[nH]c(-c4ccnc(C)c4)cc3cn2)cc1 [Example 190, N-methyl-4-(2-(2-methylpyridin-4-yl)-1H-pyrrolo[3,2-c]pyridin-6-ylamino)benzamide]		0 to 33	67 to 100		
c1cc(-c2cc3cnc(NC4CCOCC4)cc3[nH]2)ccn1 [Example 353, 2-(pyridin-4-yl)-N-(tetrahydro-2H-pyran-4-yl)-1H-pyrrolo[3,2-c]pyridin-6-amine]	< 0.5				
COc1ccc(C(=O)Nc2cc3[nH]c(-c4ccnc(C)c4)cc3cn2)cc1OC [Example 296, 3,4-dimethoxy-N-(2-(2-methylpyridin-4-yl)-1H-pyrrolo[3,2-c]pyridin-6-yl)benzamide]				0 to 33	0 to 33
CO[C@H]1CC[C@H](Nc2cc3[nH]c(-c4cccnc4)cc3cn2)CC1 [Example 274, N-((1r,4r)-4-methoxycyclohexyl)-2-(pyridin-3-yl)-1H-pyrrolo[3,2-c]pyridin-6-amine]				0 to 33	0 to 33
Cn1cc(-c2cc3cnc(NC(=O)C4CC4)cc3[nH]2)cn1 [Example 210, N-(2-(1-methyl-1H-pyrazol-4-yl)-1H-pyrrolo[3,2-c]pyridin-6-yl)cyclopropanecarboxamide]				0 to 33	67 to 100
Cc1cc(-c2cc3cnc(NC(=O)CC4COC4)cc3[nH]2)ccn1 [Example 165, N-(2-(2-methylpyridin-4-yl)-1H-pyrrolo[3,2-c]pyridin-6-yl)-2-(oxetan-3-yl)acetamide]		0 to 33	67 to 100		
FC1(F)CC(c2cc3cnc(NC4CCOCC4)cc3[nH]2)C1 [Example 397, 2-(3,3-difluorocyclobutyl)-N-(tetrahydro-2H-pyran-4-yl)-1H-pyrrolo[3,2-c]pyridin-6-amine]				33 to 66	33 to 66
CCc1cc(-c2cc3cnc(NC4CCOCC4)cc3n2C)ncn1 [Example 389, 2-(6-ethylpyrimidin-4-yl)-1-methyl-N-(tetrahydro-2H-pyran-4-yl)-1H-pyrrolo[3,2-c]pyridin-6-amine]	> 1				
CC(C)n1cc(C(=O)Nc2cc3[nH]c(-c4ccnc(OC(C)C(F)(F)F)n4)cc3cn2)cn1 (centres unmarked) [Example 149, 1-isopropyl-N-(2-(2-(1,1,1-trifluoropropan-2-yloxy)pyrimidin-4-yl)-1H-pyrrolo[3,2-c]pyridin-6-yl)-1H-pyrazole-4-carboxamide]		0 to 33	67 to 100		
Cc1nccc(-c2cc3cnc(NC(=O)c4cnn(C)c4)cc3[nH]2)c1F [Example 283, N-(2-(3-fluoro-2-methylpyridin-4-yl)-1H-pyrrolo[3,2-c]pyridin-6-yl)-1-methyl-1H-pyrazole-4-carboxamide]				0 to 33	0 to 33
CN(CC(F)(F)F)c1nccc(-c2cc3cnc(NC4CCOCC4)cc3[nH]2)n1 [Example 370, 2-(2-(methyl(2,2,2-trifluoroethyl)amino)pyrimidin-4-yl)-N-(tetrahydro-2H-pyran-4-yl)-1H-pyrrolo[3,2-c]pyridin-6-amine]	0.5 to 1				
COCCOc1ccc(C(=O)Nc2cc3[nH]c(-c4ccnc(OC)n4)cc3cn2)cc1OC [Example 252, 3-methoxy-4-(2-methoxyethoxy)-N-(2-(2-methoxypyrimidin-4-yl)-1H-pyrrolo[3,2-c]pyridin-6-yl)benzamide]				0 to 33	0 to 33
Cn1cc(C(=O)Nc2cc3[nH]c(-c4ccnc(C(F)(F)F)n4)cc3cn2)cn1 [Example 287, 1-methyl-N-(2-(2-(trifluoromethyl)pyrimidin-4-yl)-1H-pyrrolo[3,2-c]pyridin-6-yl)-1H-pyrazole-4-carboxamide]				0 to 33	0 to 33
Cc1cc(-c2cc3cnc(NC(=O)N(C)C)cc3[nH]2)ccn1 [Example 291, 1,1-dimethyl-3-(2-(2-methylpyridin-4-yl)-1H-pyrrolo[3,2-c]pyridin-6-yl)urea]				0 to 33	0 to 33
FC(F)(F)c1cc2cnc(NC3CCOCC3)cc2[nH]1 [Example 71, N-(tetrahydro-2H-pyran-4-yl)-2-(trifluoromethyl)-1H-pyrrolo[3,2-c]pyridin-6-amine]	> 1				
Cn1cc(C(=O)Nc2cc3[nH]c(-c4cnc[nH]4)cc3cn2)cn1 [Example 82, N-(2-(1H-imidazol-5-yl)-1H-pyrrolo[3,2-c]pyridin-6-yl)-1-methyl-1H-pyrazole-4-carboxamide]	> 1	0 to 33	33 to 66		
Cc1cccc(-c2cc3cnc(NC(=O)C4CC4)cc3n2C)n1 [Example 69, N-(1-methyl-2-(6-methylpyridin-2-yl)-1H-pyrrolo[3,2-c]pyridin-6-yl)cyclopropanecarboxamide]	> 1				
Cn1cc(Nc2cc3[nH]c(-c4ccnc(C#N)c4)cc3cn2)cn1 [Example 56, 4-(6-(1-methyl-1H-pyrazol-4-ylamino)-1H-pyrrolo[3,2-c]pyridin-2-yl)picolinonitrile]	> 1	0 to 33	67 to 100		
